The source of these data is patent publication US20260008768A1, “UREA DERIVATIVES FOR INHIBITING NLRP3 AND USES THEREOF” (VENTUS THERAPEUTICS U.S., INC., priority 2023, published 2026).

The target of assay [1] is T1, human NLRP3 (Homo sapiens, UniProt Q96P20). Nature of the assay: Human Whole Blood (hWB) NLRP3 Assay (LPS/ATP, IL-1β). Set-up: host or cells: human whole blood from healthy volunteers (A3). Type of assay: cell-based. The method, then:
Human whole blood is drawn from healthy volunteers after obtaining written informed consent. Heparin lithium coated tubes are used to collect blood from volunteers. Blood samples are distributed on 96 well plates using 90 μl per well.
Priming procedure: Priming is performed by adding 5 μl of LPS (O26:B6; Sigma L-2654) at a final concentration of 1 μg/ml for 4.5 hours in a humidified incubator with 37° C., 5% CO2. Thirty minutes prior to NLRP3 activation, 5 μl of a 20× compound solution or vehicle (2% dimethylsulfoxide (DMSO)) is added to each well and plates were incubated on a shaker (450 rpm) in a humidified incubator with 37° C., 5% CO2.
Alternative priming procedure: Thirty minutes prior to LPS priming, 5 μl of a 20× compound solution or vehicle (2% dimethylsulfoxide (DMSO)) is added to each well and plates were incubated on a shaker (450 rpm) in a humidified incubator with 37° C., 5% CO2. Priming is performed by adding 5 μl of LPS (O26:B6; Sigma L-2654) at a final concentration of 1 μg/ml for 5 hours in a humidified incubator with 37° C., 5% CO2.
Activation is then performed by adding 3.3 μl of a 31×ATP solution per well. At the end of the 30 minutes stimulation, the plates are centrifuged (800 g, 10 min, room temperature) and the plasma from each well is frozen at −80° C. IL-1β levels in the supernatant were analyzed using a mesoscale discovery assay (MSD K151TUK) according to the manufacturers' instructions.
There is no detectable difference in assay results using the priming procedure versus the alternative priming procedure.
hWB NLRP3 IC50 assay results, as a measurement of whole blood potency, are provided in Table B. “A” activity=<1 uM; “B” activity=1-2 uM; “C” activity=>2-3 uM; “D” activity=>3 uM.

For assay [2], the target named is T1, human NLRP3. Nature of the assay: Scintillation Proximity (SPA) NLRP3 Assay, displacement of 3H-MCC950. The conditions noted are these: for IC50: displacement of 3H-MCC950 from human NLRP3. Type of assay: binding. Put shortly: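 Human NLRP3 (350 nM) preincubated 15 min at RT with compound (5% DMSO final) in HEPES pH 7.5 buffer with 100 μM ADP, then 125 nM 3H-MCC950 added for 60 min. Copper PVT SPA beads added; counts read 6 h later. Specific binding = signal minus no-protein wells, duplicates averaged; IC50 reported.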
On the technique in general: Scintillation proximity formats need no separation of bound from free tracer.

In assay [3] the target is T1, human NLRP3. Nature of the assay: Human PBMC NLRP3 Assay (LPS priming, ATP stimulation, cytokine measurement). Type of assay: cell-based. Set-up: host or cells: human PBMCs (A2); human whole blood from healthy volunteers (A3). The settings on record: human PBMC, LPS + ATP. Here is the method:
Reagents: Human PBMCs (Normal): iXCells Cat #10HU-003; RPMI 1640 medium with GlutaMAX: ThermoFisher Cat #61870127 (Complete Media: 4.5 g/L D-glucose, 10% FBS, 100 mM NaPyr, 1% Pen/Strep, 10 mM HEPES and 0.05 mM of ®-mercaptoethanol; Assay Media: 4.5 g/L D-glucose, 100 mM NaPyr, 1% Pen/Strep, 10 mM HEPES and 0.05 mM of mercaptoethanol; 96-well V-bottom Plates: Costar Cat #3894; LPS (E. coli O26:B6): Sigma Cat #L2654, stock 5 mg/mL in PBS; ATP: Sigma Cat #A6419, prepared in a 250 mM stock in 1 M HEPES (adjusted to pH 7.4).
Cryopreserved PBMCs were rapidly thawed in a 37° C. water bath for 2 min. Cells were then centrifuged at 1200 RPM for 5 min and resuspended in ˜50 mL of fresh RPMI 1640 Complete Medium. A count was undertaken using a hemocytometer and adjusted to 2.5×10^5 cells/mL. V-shaped 96-well plates were seeded with 200 μL of PBMCs (5×10^4) per well and subsequently incubated overnight at 37° C. with 5% CO2. Assay Media was then prepared containing 100 ng/ml of LPS. PBMCs were then centrifuged at 1,200 RPM for 5 min, serum containing media was aspirated, and 150 μL/well of Assay Media+LPS was immediately added. Assay Media without LPS was added in the untreated control wells. Cells were then primed with LPS for 4 h at 37° C. with 5% CO2. A concentration response curve (CRC) was prepared of 1000× test compound in 100% DMSO. The CRC was then diluted 1:50 in Assay Media and then further diluted by 1:5× in Assay Media resulting in a final 4×CRC in 0.4% DMSO/Assay Media. 50 μL/well of 4× test compound CRC or vehicle (0.4% DMSO/Assay Media) was then transferred into each well and subsequently incubated for 30 min at 37° C. with 5% CO2. Cells were stimulated by adding 4 μL of 250 mM ATP, using a 250 mM stock prepared in 1 M Hepes without further dilution (for a final concentration of 5 mM), for 1 h at 37° C. with 5% CO2 Plates were then centrifuged at 1200 RPM for 5 min; and 50 μl of the media was transferred to a clean 96-well storage plate for cytokine measurements using the mesoscale platform, and stored at −80° C. until analyzed. Compounds were added 30 minutes before priming the cells with LPS when TNFα was required to be quantified in the cytokine panel to confirm selectivity.
PBMC NLRP3 IC50 assay results, as a measurement of cellular potency, are provided in Table B. “A” activity=<0.01 uM; “B” activity=0.01-0.1 uM; “C” activity=>0.1-0.5 uM; “D” activity=>0.5 uM.

Bounds are passed on as bounds.

T1 sequence (Q96P20 whole entry): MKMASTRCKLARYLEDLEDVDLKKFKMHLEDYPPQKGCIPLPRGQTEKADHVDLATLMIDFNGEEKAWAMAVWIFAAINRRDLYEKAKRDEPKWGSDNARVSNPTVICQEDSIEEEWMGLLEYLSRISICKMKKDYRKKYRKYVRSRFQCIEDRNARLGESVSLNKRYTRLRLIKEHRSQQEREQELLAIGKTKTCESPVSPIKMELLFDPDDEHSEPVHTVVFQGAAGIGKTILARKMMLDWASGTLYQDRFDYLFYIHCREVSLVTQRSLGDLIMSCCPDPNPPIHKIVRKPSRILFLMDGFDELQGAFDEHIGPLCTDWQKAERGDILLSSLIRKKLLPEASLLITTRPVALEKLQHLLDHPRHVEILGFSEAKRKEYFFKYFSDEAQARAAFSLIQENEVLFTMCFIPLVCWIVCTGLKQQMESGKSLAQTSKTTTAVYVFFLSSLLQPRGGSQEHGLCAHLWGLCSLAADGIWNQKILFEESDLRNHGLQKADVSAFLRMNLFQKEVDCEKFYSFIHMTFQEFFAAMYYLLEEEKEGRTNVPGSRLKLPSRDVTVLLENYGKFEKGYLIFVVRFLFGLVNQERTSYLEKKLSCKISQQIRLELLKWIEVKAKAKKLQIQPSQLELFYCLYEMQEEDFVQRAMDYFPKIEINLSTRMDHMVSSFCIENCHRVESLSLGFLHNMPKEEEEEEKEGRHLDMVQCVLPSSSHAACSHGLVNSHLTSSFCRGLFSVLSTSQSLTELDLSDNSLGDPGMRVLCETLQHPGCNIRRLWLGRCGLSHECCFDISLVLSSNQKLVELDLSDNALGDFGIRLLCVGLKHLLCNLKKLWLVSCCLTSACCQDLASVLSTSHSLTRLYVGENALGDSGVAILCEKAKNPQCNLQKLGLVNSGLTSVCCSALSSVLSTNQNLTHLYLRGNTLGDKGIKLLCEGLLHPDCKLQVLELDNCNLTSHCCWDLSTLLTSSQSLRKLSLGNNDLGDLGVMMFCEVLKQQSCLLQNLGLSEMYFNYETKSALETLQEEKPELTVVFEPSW

By IC50 is commonly meant the concentration at which inhibition is half-maximal. Take `C[C@@H]1CCN(c2nnn[nH]2)C[C@H](NC(=O)N(C)c2ccc(Cl)cc2F)C1` (single isomer, unassigned) [5A*]: the IC50 is below 1 µM in assay [1] (Table B, activity class); 0.036 µM in assay [1] (Table C); below 1 µM in assay [2] (Table B, activity class); 0.071 µM in assay [2] (Table C); below 0.01 µM in assay [3] (Table B, activity class); 0.004 µM in assay [3] (Table C). Moreover, in assay [2] (relative to Compound 27A*), the “fold improvement in binding activity (SPA IC50)” value was above 19 fold.

For the compound `C[C@@H]1CCN(c2nnn[nH]2)C[C@H](NC(=O)N(C)c2ccc(Cl)c(F)c2)C1` (single isomer, unassigned) [12A*], the IC50 in assay [1] (Table B, activity class) is 2 to 3 µM; in assay [2] (Table B, activity class), below 1 µM; in assay [3] (Table B, activity class), 0.01 to 0.1 µM.

With `C[C@@H]1CCN(c2nnn[nH]2)C[C@H](NC(=O)N(C)c2ccc(C(F)(F)F)cc2F)C1` (single isomer, unassigned) [13A*], the IC50 in assay [1] (Table B, activity class) is below 1 µM; in assay [1] (Table C), 0.2 µM; in assay [2] (Table B, activity class) it was below 1 µM; in assay [2] (Table C) it was 0.55 µM; in assay [3] (Table B, activity class), below 0.01 µM; in assay [3] (Table C), 0.0056 µM.

Consider `C[C@@H]1CCN(c2nnn[nH]2)C[C@H](NC(=O)N(C)c2ccc(OC(F)(F)F)c(F)c2)C1` (single isomer, unassigned) [14A*], for which the IC50 is 1 to 2 µM in assay [1] (Table B, activity class); below 1 µM in assay [2] (Table B, activity class); 0.01 to 0.1 µM in assay [3] (Table B, activity class).

As for `C[C@@H]1CCN(c2nnn[nH]2)C[C@H](NC(=O)N(C)c2ccc(OC(F)F)c(F)c2)C1` (single isomer, unassigned) [15A*], the IC50 in assay [1] (Table B, activity class) is below 1 µM; in assay [2] (Table B, activity class), below 1 µM; in assay [3] (Table B, activity class), below 0.01 µM.

Consider `C[C@@H]1CCN(c2nnn[nH]2)C[C@H](NC(=O)N(C)c2ccc(OC(F)F)c(OC(F)F)c2)C1` (single isomer, unassigned) [16A*], for which the IC50 in assay [1] (Table B, activity class) is 1 to 2 µM; in assay [2] (Table B, activity class), below 1 µM; in assay [3] (Table B, activity class), below 0.01 µM.

For the compound `C[C@@H]1CCN(c2nnn[nH]2)C[C@H](NC(=O)N(C)c2ccc(OC(F)F)cc2F)C1` (single isomer, unassigned) [17A*], the IC50 was 1 to 2 µM in assay [1] (Table B, activity class); below 1 µM in assay [2] (Table B, activity class); below 0.01 µM in assay [3] (Table B, activity class).

On to `C[C@@H]1CCN(c2nnn[nH]2)C[C@H](NC(=O)N(C)c2ccc(C(F)F)cc2F)C1` (single isomer, unassigned) [18A*], for which the half-inhibitory concentration (IC50) was below 1 µM in assay [1] (Table B, activity class); below 1 µM in assay [2] (Table B, activity class); below 0.01 µM in assay [3] (Table B, activity class).

Regarding `C[C@@H]1CCN(c2nnn[nH]2)C[C@H](NC(=O)N(C)c2c(F)cc(OC(F)F)cc2F)C1` (single isomer, unassigned) [19A*], the IC50 in assay [1] (Table B, activity class) is below 1 µM; in assay [2] (Table B, activity class), below 1 µM; in assay [3] (Table B, activity class), below 0.01 µM.

With `C[C@@H]1CCN(c2nnn[nH]2)C[C@H](NC(=O)N(C)c2c(F)cc(C3CC3)cc2F)C1` (single isomer, unassigned) [20A*], the IC50 in assay [1] (Table B, activity class) was below 1 µM; in assay [2] (Table B, activity class), below 1 µM; in assay [3] (Table B, activity class), below 0.01 µM.

Regarding `C[C@@H]1CCN(c2nnn[nH]2)C[C@H](NC(=O)N(C)c2ccc(C(F)(F)F)c(F)c2F)C1` (single isomer, unassigned) [21A*], the IC50 in assay [1] (Table B, activity class) was below 1 µM; in assay [2] (Table B, activity class), below 1 µM; in assay [3] (Table B, activity class), 0.01 to 0.1 µM.

`C[C@@H]1CCN(c2nnn[nH]2)C[C@H](NC(=O)N(C)c2ccc(C3CC3)c(F)c2)C1` (single isomer, unassigned) [23A*]: the IC50 is below 1 µM in assay [1] (Table B, activity class); below 1 µM in assay [2] (Table B, activity class); below 0.01 µM in assay [3] (Table B, activity class).

Consider `C[C@@H]1CCN(c2nnn[nH]2)C[C@H](NC(=O)N(C)c2ccc(OC(F)(F)F)cc2F)C1` (single isomer, unassigned) [24A*], for which the IC50 in assay [1] (Table B, activity class) is below 1 µM; in assay [1] (Table C) it was 0.26 µM; in assay [2] (Table B, activity class), below 1 µM; in assay [2] (Table C), 0.11 µM; in assay [3] (Table B, activity class), below 0.01 µM; in assay [3] (Table C) it was 0.0079 µM.

`C[C@@H]1CCN(c2nnn[nH]2)C[C@H](NC(=O)N(C)c2ccc(OC(F)(F)F)c(F)c2F)C1` (single isomer, unassigned) [26A*]: the IC50 in assay [1] (Table B, activity class) is above 3 µM; in assay [2] (Table B, activity class), below 1 µM; in assay [3] (Table B, activity class), 0.01 to 0.1 µM.

`C[C@@H]1C[C@@H](NC(=O)N(C)c2ccc(OC(F)(F)F)cc2)[C@H]2CC[C@@H]1N2c1nnn[nH]1` (single isomer, unassigned) [45A*]: the IC50 in assay [1] (Table B, activity class) is below 1 µM; in assay [1] (Table C), 0.42 µM; in assay [2] (Table C) it was 0.11 µM. For the same compound, the “fold increase in binding activity (SPA IC50)” value in assay [2] (relative to Compound 39A) was above 12 fold.

For `C[C@@H]1C[C@@H](NC(=O)N(C)c2ccc(C(F)(F)F)c(F)c2F)[C@H]2CC[C@@H]1N2c1nnn[nH]1` (single isomer, unassigned) [47A*], the IC50 is 1 to 2 µM in assay [1] (Table B, activity class) and below 1 µM in assay [2] (Table B, activity class).

As for `C[C@@H]1C[C@@H](NC(=O)N(C)c2ccc(C(F)(F)F)cc2F)[C@H]2CC[C@@H]1N2c1nnn[nH]1` (single isomer, unassigned) [48A*], the IC50 in assay [1] (Table B, activity class) is below 1 µM; in assay [2] (Table B, activity class) it was below 1 µM.

In the case of `C[C@@H]1C[C@@H](NC(=O)N(C)c2ccc(OC(F)(F)F)c(F)c2)[C@H]2CC[C@@H]1N2c1nnn[nH]1` (single isomer, unassigned) [51A*], the IC50 in assay [1] (Table B, activity class) is 1 to 2 µM; in assay [2] (Table B, activity class), below 1 µM.

With `C[C@@H]1C[C@@H](NC(=O)N(C)c2ccc(C(F)F)cc2F)[C@H]2CC[C@@H]1N2c1nnn[nH]1` (single isomer, unassigned) [55A*], the IC50 was below 1 µM in assay [1] (Table B, activity class) and below 1 µM in assay [2] (Table B, activity class).

In the case of `C[C@@H]1C[C@@H](NC(=O)N(C)c2ccc(OC(F)(F)F)cc2F)[C@H]2CC[C@@H]1N2c1nnn[nH]1` (single isomer, unassigned) [56A*], the IC50 in assay [1] (Table B, activity class) was below 1 µM; in assay [2] (Table B, activity class), below 1 µM.

Take `C[C@@H]1C[C@@H](NC(=O)N(C)c2ccc(OC(F)(F)F)c(OC(F)F)c2)[C@H]2CC[C@@H]1N2c1nnn[nH]1` (single isomer, unassigned) [63A*]: the IC50 in assay [1] (Table B, activity class) was 2 to 3 µM; in assay [2] (Table B, activity class) it was below 1 µM.

As to `CCN(C(=O)N[C@@H]1C[C@@H](C)[C@@H]2CC[C@H]1N2c1nnn[nH]1)c1ccc(OC(F)F)cc1F` (single isomer, unassigned) [65A*], the IC50 in assay [1] (Table B, activity class) is below 1 µM; in assay [2] (Table B, activity class), below 1 µM.
